ChEMBL document CHEMBL5154804, “Species-Selective Targeting of Fungal Hsp90: Design, Synthesis, and Evaluation of Novel 4,5-Diarylisoxazole Derivatives for the Combination Treatment of Azole-Resistant Candidiasis” (J Med Chem, 2022)

How the values were obtained:
Candida albicans [1] = experiment: Synergistic antifungal activity against fluconazole-resistant Candida albicans 901 assessed as inhibition of fungal growth in presence of fluconazole by checker board microdilution assay; type: functional
Candida albicans [2] = experiment: Synergistic antifungal activity against fluconazole-resistant Candida albicans 904 assessed as inhibition of fungal growth in presence of fluconazole by checker board microdilution assay; type: functional
Candida albicans [3] = experiment: Synergistic antifungal activity against fluconazole-resistant Candida albicans 632 assessed as inhibition of fungal growth in presence of fluconazole by checker board microdilution assay; type: functional
Candida albicans [4] = experiment: Synergistic antifungal activity against fluconazole-resistant Candida albicans 100 assessed as inhibition of fungal growth in presence of fluconazole by checker board microdilution assay; type: functional
Candida albicans [5] = experiment: Synergistic antifungal activity against fluconazole-resistant Candida albicans 103 assessed as inhibition of fungal growth in presence of fluconazole by checker board microdilution assay; type: functional
Candida albicans [6] = experiment: Synergistic antifungal activity against fluconazole-resistant Candida albicans 311 assessed as inhibition of fungal growth in presence of fluconazole by checker board microdilution assay; type: functional
Candida albicans [7] = experiment: Antifungal activity against fluconazole-resistant Candida albicans 901 assessed as inhibition of fungal growth by checker board microdilution assay; type: functional
Candida albicans [8] = experiment: Antifungal activity against fluconazole-resistant Candida albicans 904 assessed as inhibition of fungal growth by checker board microdilution assay; type: functional
Candida albicans [9] = experiment: Antifungal activity against fluconazole-resistant Candida albicans 632 assessed as inhibition of fungal growth by checker board microdilution assay; type: functional
Candida albicans [10] = experiment: Antifungal activity against fluconazole-resistant Candida albicans 100 assessed as inhibition of fungal growth by checker board microdilution assay; type: functional
Candida albicans [11] = experiment: Antifungal activity against fluconazole-resistant Candida albicans 103 assessed as inhibition of fungal growth by checker board microdilution assay; type: functional
Candida albicans [12] = experiment: Antifungal activity against fluconazole-resistant Candida albicans 311 assessed as inhibition of fungal growth by checker board microdilution assay; type: functional
Candida albicans [13] = experiment: Synergetic antifungal activity against fluconazole-resistant Candida albicans 901 assessed as fractional inhibitory concentration index in presence of fluconazole by checker board microdilution assay; type: functional
Candida albicans [14] = experiment: Synergetic antifungal activity against fluconazole-resistant Candida albicans 904 assessed as fractional inhibitory concentration index in presence of fluconazole by checker board microdilution assay; type: functional
Candida albicans [15] = experiment: Synergetic antifungal activity against fluconazole-resistant Candida albicans 632 assessed as fractional inhibitory concentration index in presence of fluconazole by checker board microdilution assay; type: functional
Candida albicans [16] = experiment: Synergetic antifungal activity against fluconazole-resistant Candida albicans 100 assessed as fractional inhibitory concentration index in presence of fluconazole by checker board microdilution assay; type: functional
Candida albicans [17] = experiment: Synergetic antifungal activity against fluconazole-resistant Candida albicans 103 assessed as fractional inhibitory concentration index in presence of fluconazole by checker board microdilution assay; type: functional
Candida albicans [18] = experiment: Synergetic antifungal activity against fluconazole-resistant Candida albicans 311 assessed as fractional inhibitory concentration index in presence of fluconazole by checker board microdilution assay; type: functional
A549 = experiment: Cytotoxicity against human A549 cell assessed as inhibition of cell growth after 24 hrs by MTT assay; type: functional, cell-based; details: A549, 24 h
MCF7 = experiment: Cytotoxicity against human MCF7 cell assessed as inhibition of cell growth after 24 hrs by MTT assay; type: functional, cell-based; details: MCF7, 24 h
HepG2 = experiment: Cytotoxicity against human HepG2 cell assessed as inhibition of cell growth after 24 hrs by MTT assay; type: functional, cell-based; details: HepG2, 24 h
[19] = Cytotoxicity against human THLE-2 cell assessed as inhibition of cell growth after 24 hrs by MTT assay; type: toxicity, cell-based; details: THLE-2 cells
[20] = Cytotoxicity against human BEAS-2B cell assessed as inhibition of cell growth after 24 hrs by MTT assay; type: toxicity, cell-based; details: BEAS-2B cells
[21] = Cytotoxicity against mouse NIH3T3 cell assessed as inhibition of cell growth after 24 hrs by MTT assay; type: toxicity, cell-based; details: NIH3T3 cells
RAW264.7 = experiment: Cytotoxicity against mouse RAW264.7 cell assessed as inhibition of cell growth after 24 hrs by MTT assay; type: functional, cell-based; details: RAW264.7, 24 h
[22] = Cytotoxicity against mouse BV-2 cell assessed as inhibition of cell growth after 24 hrs by MTT assay; type: toxicity, cell-based; details: BV-2 cells
[23] = Binding affinity to recombinant Candida albicans Hsp90 NBD expressed in Escherichia coli by SPR assay
Heat shock protein HSP90 = Heat shock protein HSP90 (Homo sapiens, UniProt P07900+P08238); experiment: Binding affinity to human Hsp90 expressed in Escherichia coli by SPR assay
[24] = Metabolic stability in human liver microsomes assessed as half life in presence of NADPH cofactor under shaking condition for 10 mins measured after 5 to 60 mins by LC-MS/MS analysis; type: ADME, Microsome; details: time 15-70 min
[25] = Metabolic stability in human liver microsomes assessed as microsomal intrinsic clearance in presence of NADPH cofactor under shaking condition for 10 mins measured after 5 to 60 mins by LC-MS/MS analysis; type: ADME, Microsome; details: time 15-70 min
[26] = Metabolic stability in human liver microsomes assessed as intrinsic clearance in presence of NADPH cofactor under shaking condition for 10 mins measured after 5 to 60 mins by LC-MS/MS analysis; type: ADME, Microsome; details: time 15-70 min
[27] = Metabolic stability in human liver microsomes assessed as compound remaining in presence of NADPH cofactor under shaking condition for 10 mins measured after 60 mins by LC-MS/MS analysis; type: ADME, Microsome; details: time 70 min, read-out: Stability
[28] = Stability in human plasma assessed as compound remaining at 120 mins by LC-MS/MS analysis; type: ADME, cell-free; details: read-out: Stability
[29] = Stability in human plasma assessed as half life at 120 mins by LC-MS/MS analysis; type: ADME, cell-free
CYP1A2 = target: T1, CYP1A2 (Homo sapiens, UniProt P05177); experiment: Inhibition of CYP1A2 in human liver microsome at 10 uM using phenacetin as substrate incubated for 10 mins in presence of NADPH cofactor by LC-MS/MS analysis; type: ADME; details: liver microsomes, probe phenacetin
T1 sequence (P05177 whole entry): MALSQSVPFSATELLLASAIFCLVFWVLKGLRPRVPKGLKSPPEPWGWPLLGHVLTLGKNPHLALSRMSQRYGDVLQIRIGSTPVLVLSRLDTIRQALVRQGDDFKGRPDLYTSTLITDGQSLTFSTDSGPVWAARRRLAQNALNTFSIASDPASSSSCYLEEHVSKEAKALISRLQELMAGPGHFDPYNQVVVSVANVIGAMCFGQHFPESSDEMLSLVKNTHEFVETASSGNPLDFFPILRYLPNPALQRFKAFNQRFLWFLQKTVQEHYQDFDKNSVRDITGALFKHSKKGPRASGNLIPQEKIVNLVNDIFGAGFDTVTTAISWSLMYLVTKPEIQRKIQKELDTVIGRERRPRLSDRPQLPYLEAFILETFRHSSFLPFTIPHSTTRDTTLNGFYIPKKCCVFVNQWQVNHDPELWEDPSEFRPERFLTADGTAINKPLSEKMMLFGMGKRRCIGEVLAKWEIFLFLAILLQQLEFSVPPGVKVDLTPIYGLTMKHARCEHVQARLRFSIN

CYP2C9 = CYP2C9 (Homo sapiens, UniProt P11712); experiment: Inhibition of CYP2C9 in human liver microsome at 10 uM using diclofenac as substrate incubated for 10 mins in presence of NADPH cofactor by LC-MS/MS analysis; type: ADME; details: liver microsomes, probe diclofenac
CYP2C9, sequence (P11712 whole entry): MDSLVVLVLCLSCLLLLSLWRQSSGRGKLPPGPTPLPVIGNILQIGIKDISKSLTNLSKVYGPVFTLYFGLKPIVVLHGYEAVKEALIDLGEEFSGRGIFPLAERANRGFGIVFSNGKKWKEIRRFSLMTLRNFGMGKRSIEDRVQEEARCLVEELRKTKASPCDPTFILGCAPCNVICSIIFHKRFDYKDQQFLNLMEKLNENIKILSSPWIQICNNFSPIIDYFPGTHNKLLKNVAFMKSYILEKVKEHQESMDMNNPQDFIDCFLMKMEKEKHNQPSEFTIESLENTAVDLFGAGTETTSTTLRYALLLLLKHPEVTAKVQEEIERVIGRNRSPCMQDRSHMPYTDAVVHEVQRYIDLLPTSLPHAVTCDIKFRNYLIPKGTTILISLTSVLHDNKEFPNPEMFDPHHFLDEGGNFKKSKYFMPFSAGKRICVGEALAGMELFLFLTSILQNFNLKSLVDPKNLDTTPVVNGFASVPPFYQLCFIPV

CYP2C19 = CYP2C19 (Homo sapiens, UniProt P33261); experiment: Inhibition of CYP2C19 in human liver microsome at 10 uM using S-mephenytoin as substrate incubated for 10 mins in presence of NADPH cofactor by LC-MS/MS analysis; type: ADME; details: liver microsomes, probe S-mephenytoin
CYP2C19, sequence (P33261 whole entry): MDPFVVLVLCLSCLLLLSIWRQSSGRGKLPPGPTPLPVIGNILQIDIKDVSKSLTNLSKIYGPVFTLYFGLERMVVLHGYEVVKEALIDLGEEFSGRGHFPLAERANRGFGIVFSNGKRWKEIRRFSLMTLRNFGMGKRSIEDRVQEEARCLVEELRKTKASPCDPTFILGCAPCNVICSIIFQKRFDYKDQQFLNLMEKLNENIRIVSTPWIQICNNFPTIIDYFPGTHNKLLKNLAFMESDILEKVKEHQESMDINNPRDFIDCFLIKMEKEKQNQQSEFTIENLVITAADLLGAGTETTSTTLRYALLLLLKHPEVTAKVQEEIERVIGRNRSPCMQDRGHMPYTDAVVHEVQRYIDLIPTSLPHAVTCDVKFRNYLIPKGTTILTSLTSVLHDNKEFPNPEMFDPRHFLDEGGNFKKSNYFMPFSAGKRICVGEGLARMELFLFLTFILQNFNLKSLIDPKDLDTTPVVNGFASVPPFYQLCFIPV

CYP2D6 = CYP2D6 (Homo sapiens, UniProt P10635); experiment: Inhibition of CYPD6 in human liver microsome at 10 uM using dextromethorphan as substrate incubated for 10 mins in presence of NADPH cofactor by LC-MS/MS analysis; type: ADME; details: liver microsomes, probe dextromethorphan
CYP2D6, sequence (P10635 whole entry): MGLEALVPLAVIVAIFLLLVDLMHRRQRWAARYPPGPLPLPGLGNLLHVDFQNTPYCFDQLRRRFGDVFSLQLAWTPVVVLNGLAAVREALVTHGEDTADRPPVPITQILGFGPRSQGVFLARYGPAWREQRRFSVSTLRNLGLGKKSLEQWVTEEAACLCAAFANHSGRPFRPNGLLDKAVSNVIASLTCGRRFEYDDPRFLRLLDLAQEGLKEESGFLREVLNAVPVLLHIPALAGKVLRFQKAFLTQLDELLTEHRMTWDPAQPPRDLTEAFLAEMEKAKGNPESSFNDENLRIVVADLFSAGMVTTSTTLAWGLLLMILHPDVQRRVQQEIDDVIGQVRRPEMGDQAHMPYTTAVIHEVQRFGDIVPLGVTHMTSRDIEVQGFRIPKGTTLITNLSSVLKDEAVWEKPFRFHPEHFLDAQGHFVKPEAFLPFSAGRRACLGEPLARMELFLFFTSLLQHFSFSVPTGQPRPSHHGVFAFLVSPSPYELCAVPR

CYP3A4 = CYP3A4 (Homo sapiens, UniProt P08684); experiment: Inhibition of CYP3A4 in human liver microsome at 10 uM using midazolam as substrate incubated for 10 mins in presence of NADPH cofactor by LC-MS/MS analysis; type: ADME; details: liver microsomes, probe midazolam
CYP3A4, sequence (P08684 whole entry): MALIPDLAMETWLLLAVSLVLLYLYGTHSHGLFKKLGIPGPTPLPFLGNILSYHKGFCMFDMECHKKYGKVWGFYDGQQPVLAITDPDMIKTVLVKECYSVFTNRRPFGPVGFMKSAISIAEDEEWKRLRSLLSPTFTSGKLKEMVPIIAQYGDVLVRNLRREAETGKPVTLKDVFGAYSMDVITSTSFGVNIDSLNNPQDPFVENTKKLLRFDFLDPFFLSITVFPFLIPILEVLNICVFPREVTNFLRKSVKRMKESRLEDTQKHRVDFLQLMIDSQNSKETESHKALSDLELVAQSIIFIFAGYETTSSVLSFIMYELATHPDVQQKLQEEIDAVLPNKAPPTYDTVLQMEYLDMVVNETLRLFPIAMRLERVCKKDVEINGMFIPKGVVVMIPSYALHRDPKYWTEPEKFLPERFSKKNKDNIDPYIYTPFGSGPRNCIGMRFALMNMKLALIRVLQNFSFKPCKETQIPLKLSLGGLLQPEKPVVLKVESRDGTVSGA

Candida albicans [30] = experiment: Potentiation of fluconazole-induced antifungal activity against fluconazole-resistant Candida albicans 901 assessed as fluconazole MIC by checker board microdilution assay; type: functional
Candida albicans [31] = experiment: Potentiation of fluconazole-induced antifungal activity against fluconazole-resistant Candida albicans 904 assessed as fluconazole MIC by checker board microdilution assay; type: functional
Candida albicans [32] = experiment: Potentiation of fluconazole-induced antifungal activity against fluconazole-resistant Candida albicans 632 assessed as fluconazole MIC by checker board microdilution assay; type: functional
Candida albicans [33] = experiment: Potentiation of fluconazole-induced antifungal activity against fluconazole-resistant Candida albicans 100 assessed as fluconazole MIC by checker board microdilution assay; type: functional
Candida albicans [34] = experiment: Potentiation of fluconazole-induced antifungal activity against fluconazole-resistant Candida albicans 103 assessed as fluconazole MIC by checker board microdilution assay; type: functional
Candida albicans [35] = experiment: Potentiation of fluconazole-induced antifungal activity against fluconazole-resistant Candida albicans 311 assessed as fluconazole MIC by checker board microdilution assay; type: functional

Compound: CCNC(=O)c1noc(-c2cc(-c3ccc(C)cc3)c(O)cc2O)c1-c1ccc(CN2CCCCC2)cc1
- MIC80 (Candida albicans [1]): 0.25 µg/mL
- MIC80 (Candida albicans [2]): 0.25 µg/mL
- MIC80 (Candida albicans [3]): 0.5 µg/mL
- MIC80 (Candida albicans [4]): 0.25 µg/mL
- MIC80 (Candida albicans [5]): 0.5 µg/mL
- MIC80 (Candida albicans [6]): 1 µg/mL
- MIC80 (Candida albicans [7]): > 64 µg/mL
- MIC80 (Candida albicans [8]): > 64 µg/mL
- MIC80 (Candida albicans [9]): > 64 µg/mL
- MIC80 (Candida albicans [10]): > 64 µg/mL
- MIC80 (Candida albicans [11]): > 64 µg/mL
- MIC80 (Candida albicans [12]): > 64 µg/mL
- fractional inhibitory concentration index (FICI) (Candida albicans [13]): 0.02
- fractional inhibitory concentration index (FICI) (Candida albicans [14]): 0.035
- fractional inhibitory concentration index (FICI) (Candida albicans [15]): 0.039
- fractional inhibitory concentration index (FICI) (Candida albicans [16]): 0.02
- fractional inhibitory concentration index (FICI) (Candida albicans [17]): 0.039
- fractional inhibitory concentration index (FICI) (Candida albicans [18]): 0.047
- IC50 (A549): 13.8 µM
- IC50 (MCF7): 5.49 µM
- IC50 (HepG2): 4.71 µM
- IC50 at 24 h [19]: 5.72 µM
- IC50 at 24 h [20]: 10 µM
- IC50 at 24 h [21]: 0.73 µM
- IC50 (RAW264.7): 3.87 µM
- IC50 at 24 h [22]: 4.06 µM
- Kd [23]: 0.139 µM
- Kd (Heat shock protein HSP90): > 25 µM
- half-life [24]: 43.3 min
- CLint [25]: 32 µL/min/mg
- CLint [26]: 28.8 mL/min/kg
- remaining at 1.167 h [27]: 37.9%
- remaining at 2 h [28]: 90.6%
- half-life [29]: > 288 min
- inhibition at 10 min, 10 µM (CYP1A2): 12%
- inhibition at 10 min, 10 µM (CYP2C9): 39.2%
- inhibition at 10 min, 10 µM (CYP2C19): 25.4%
- inhibition at 10 min, 10 µM (CYP2D6): 76.6%
- inhibition at 10 min, 10 µM (CYP3A4): 39.8%
- MIC80 (Candida albicans [30]): 1 µg/mL
- MIC80 (Candida albicans [31]): 2 µg/mL
- MIC80 (Candida albicans [32]): 2 µg/mL
- MIC80 (Candida albicans [33]): 1 µg/mL
- MIC80 (Candida albicans [34]): 2 µg/mL
- MIC80 (Candida albicans [35]): 2 µg/mL
